What all share (assay): Growth inhibition test (MTT) for cytotoxic properties
Details in all cases: Table 1b

One assay relates to HT 29. In kind it is cell-based, human. In a few lines:
(§1)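 SW 480 and HT 29 cells in RPMI 1640 with 10% FCS were seeded at 50,000 cells/ml, grown 1 day at 37 °C, then exposed to compound added in DMSO. MTT (5 mg/ml stock) was applied after day 3 and day 6 for 5 h, and formazan absorbance was read at 540 nm. IC50 values reported.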

A further assay has as its system SW 480. The class given is cell-based, human. In a few lines:
as §1

A further assay has as its system B 16 F 10. In kind it is cell-based, mouse. As for the experimental part:
Growth Inhibition Test for Determination of the Cytotoxic Properties of Glycoconjugates of Batracyline and of Quinolone-a
The human colon cell lines SW 480 and HT 29 (ATCC no. CCL 228 and HBT-38) and the mouse melanoma cell line B 16 F 10 were cultured in Roux dishes in RPMI 1640 medium with addition of 10% FCS. The cultures were then trypsinized and taken up in RPMI plus 10% FCS to a cell count of 50,000 cells/ml. 100 μl of cell suspension/well were introduced into a 96 microwell plate and incubated for 1 day at 37° C. in a CO2 incubating cabinet. A further 100 μl of RPMI medium and 1 μl of dimethyl sulphoxide with the test substances were then added. The growth was checked after day 3 and day 6. 40 μl of MTT solution (3-(4,5-dimethylthiazol-2-yl)-2,5-diphenyltetrazoline bromide) with an initial concentration of 5 mg/ml of H2 O were added to each microwave. The plate was incubated for 5 hours in a CO2 incubating cabinet at 37° C. The medium was then sucked off and 100 μl of i-propanol/well were added. After shaking for 30 minutes with 100 μl of H2 O, the extinction was measured at 540 nm with a Titertek Multiskan MCC/340 (Flow).

Counter-ions that a name gives are not always drawn.

Turning to `C[C@@H]1O[C@H](Oc2ccc(NC(=S)NCCCC[C@H](NC(=S)Nc3ccc(O[C@H]4O[C@@H](C)[C@@H](O)[C@@H](OCC(=O)O)[C@@H]4O)cc3)C(=O)NC3C=CCC4CN(c5c(F)cc6c(=O)c(C(=O)O)cn(C7CC7)c6c5Cl)CC43)cc2)[C@@H](O)[C@H](OCC(=O)O)[C@@H]1O` (stereo partly drawn) [Example 11.8, N-{N^α,N^ε -Bis-[O-(3-O-carboxymethyl-β-L-fucosyl)-4-hydroxy-phenylamino-thiocarbonyl]-lysyl}-quinolone-a, di-sodium salt], the IC50 (in general, the concentration needed to halve the response being measured) in the assay with HT 29 is 16 µM; in the assay on SW 480, 12 µM; in the assay with B 16 F 10, 15 µM.
Turning to `C[C@@H]1O[C@H](Oc2ccc(NC(=S)NCCCC[C@@H](NC(=S)Nc3ccc(O[C@H]4O[C@@H](C)[C@@H](O)[C@@H](OCC(=O)O)[C@@H]4O)cc3)C(=O)NC3C=CCC4CN(c5c(F)cc6c(=O)c(C(=O)O)cn(C7CC7)c6c5Cl)CC43)cc2)[C@@H](O)[C@H](OCC(=O)O)[C@@H]1O` (stereo partly drawn) [Example 11.9, N-{N^α,N^ε -Bis-[O-(3-O-carboxymethyl-β-L-fucosyl)-4-hydroxy-phenylamino-thiocarbonyl]-D-lysyl}-quinolone-a, di-sodium salt], the IC50 in the assay on HT 29 worked out at 12 µM; with SW 480, 12 µM; in the assay with B 16 F 10 it was 9 µM.
With `CO[C@H]1[C@H](O)[C@H](Oc2ccc(NC(=S)NCCCC[C@@H](NC(=S)Nc3ccc(O[C@@H]4O[C@@H](C)[C@@H](O)[C@@H](OC)[C@@H]4O)cc3)C(=O)NC3C=CCC4CN(c5c(F)cc6c(=O)c(C(=O)O)cn(C7CC7)c6c5Cl)CC43)cc2)O[C@@H](C)[C@H]1O` (stereo partly drawn) [Example 11.10, N-{N^α,N^ε -Bis-[O-(3-O-methyl-α-L-fucosyl)-4hydroxy-phenylamino-thiocarbonyl]-D-lysyl}-quinolone-a], the IC50 in the assay on HT 29 came to 20 µM; with SW 480, 8 µM; with B 16 F 10 it was 2 µM.
Consider `CO[C@H]1[C@@H](O)[C@@H](CO)O[C@@H](Oc2ccc(NC(=S)NCCCC[C@@H](NC(=S)Nc3ccc(O[C@@H]4O[C@H](CO)[C@H](O)[C@H](OC)[C@H]4O)cc3)C(=O)NC3C=CCC4CN(c5c(F)cc6c(=O)c(C(=O)O)cn(C7CC7)c6c5Cl)CC43)cc2)[C@@H]1O` (stereo partly drawn) [Example 11.16, N-{N^α,N^ε -Bis-[O-(3-O-methyl-β-D-galactopyranosyl)-4-hydroxy-phenylamino-thiocarbonyl]-D-lysyl}-quinolone, sodium salt], for which the IC50 in the assay with HT 29 was determined as 10 µM; in the assay on SW 480 it was 10 µM; with B 16 F 10 it was 1.5 µM.
Turning to `CO[C@@H]1[C@H](O)[C@@H](Oc2ccc(NC(=S)NCCCC[C@@H](NC(=S)Nc3ccc(O[C@H]4O[C@H](CO)[C@@H](O)[C@H](OC)[C@@H]4O)cc3)C(=O)NC3C=CCC4CN(c5c(F)cc6c(=O)c(C(=O)O)cn(C7CC7)c6c5Cl)CC43)cc2)O[C@H](CO)[C@H]1O` (stereo partly drawn) [Example 11.17, N-{N^α,N^ε -Bis-[O-(3-O-methyl-α-D-mannopyranosyl)-4-hydroxy-phenylamino-thiocarbonyl]-D-lysyl}-quinolone-a, sodium salt], the IC50 was determined as 75 µM in the assay on HT 29, 75 µM with SW 480 and 8 µM in the assay on B 16 F 10.
For `CO[C@H]1[C@@H](O)[C@@H](CO)O[C@@H](O[C@H]2[C@H](O)[C@@H](O)[C@H](Oc3ccc(NC(=S)NCCCC[C@@H](NC(=S)Nc4ccc(O[C@@H]5O[C@H](CO)[C@@H](O[C@@H]6O[C@H](CO)[C@H](O)[C@H](OC)[C@H]6O)[C@H](O)[C@H]5O)cc4)C(=O)NC4C=CCC5CN(c6c(F)cc7c(=O)c(C(=O)O)cn(C8CC8)c7c6Cl)CC54)cc3)O[C@@H]2CO)[C@@H]1O` (stereo partly drawn) [Example 11.18, N-{N^α,N^ε -Bis-[O-(4-O-(3'-O-methyl-β-D-galactopyranosyl)-β-D-glucopyranosyl)-4-hydroxy-phenylamino-thiocarbonyl]-D-lysyl}-quinolone-a, sodium salt], the figures for the IC50 in the assay with HT 29, with SW 480 and with B 16 F 10 were 3.5 µM, 4.5 µM and 0.5 µM, respectively.
As for `CC(NC(=O)C(CCCCN)NC(=S)Nc1ccc(OC2OC(C)C(O)C(OCC(=O)O)C2O)cc1)C(=O)NC1C=CCC2CN(c3c(F)cc4c(=O)c(C(=O)O)cn(C5CC5)c4c3Cl)CC21` [Example 12.7, N-{N^α -[O-(3-O-Carboxymethyl-β-L-fucosyl)-4-hydroxy-phenylamino-thiocarbonyl]-lysyl-D-alanyl}-quinolone-a], the IC50 was more than 250 µM with HT 29, 60 µM in the assay with SW 480 and 20 µM in the assay with B 16 F 10.
Turning to `COC[C@H]1O[C@@H](Oc2ccc(NC(=S)N[C@@H](CCCCN)C(=O)NC3C=CCC4CN(c5c(F)cc6c(=O)c(C(=O)O)cn(C7CC7)c6c5Cl)CC43)cc2)[C@H](O)[C@@H](OC)[C@H]1O` (stereo partly drawn) [Example 12.9, N-{N^α -[O-(3,6-Di-O-methyl-β-D-galactopyranosyl)-4-hydroxy-phenylamino-thiocarbonyl]-lysyl}-quinolone-a, hydrochloride], the IC50 is 8 µM in the assay on HT 29, 4 µM in the assay with SW 480 and 2 µM with B 16 F 10.
Turning to `CO[C@@H]1[C@H](O)[C@@H](Oc2ccc(NC(=S)N[C@@H](CCCCN)C(=O)NC3C=CCC4CN(c5c(F)cc6c(=O)c(C(=O)O)cn(C7CC7)c6c5Cl)CC43)cc2)O[C@H](CO)[C@H]1O` (stereo partly drawn) [Example 12.10, N-{N^α -[O-(3-O-Methyl-α-D-mannopyranosyl)-4-hydroxy-phenylamino-thio-carbonyl]-lysyl}-quinolone-a, hydrochloride], the IC50 in the assay on HT 29 was determined as 15 µM; in the assay with SW 480 it was 15 µM; in the assay with B 16 F 10, 4 µM.
For the molecule `COC1C(O)C(CO)OC(OC2C(CO)OC(Oc3ccc(NC(=S)NC(CCCCN)C(=O)NC4C=CCC5CN(c6c(F)cc7c(=O)c(C(=O)O)cn(C8CC8)c7c6Cl)CC54)cc3)C(O)C2O)C1O` [Example 12.11, N-{N^α -[O-(4-O-(3'-O-Methyl-β-D-galactopyranosyl)-β-D-glucopyranosyl)-4-hydroxy-phenylamino-thiocarbonyl]-lysyl}-quinolone-a hydrochloride], the IC50 turned out to be 2 µM with HT 29, 2 µM in the assay with SW 480 and 0.5 µM in the assay on B 16 F 10.
Consider `COC1C(O)C(C)OC(Oc2ccc(NC(=S)NC3C=CCC4CN(c5c(F)cc6c(=O)c(C(=O)O)cn(C7CC7)c6c5Cl)CC43)cc2)C1O` [Example 12.13, N-[O-(3-O-Methyl-β-L-fucosyl)-4-hydroxy-phenylamino-thiocarbonyl]-quin olone-a], for which the values for the IC50 in the assay with HT 29, in the assay with SW 480 and in the assay with B 16 F 10 were 100 µM, 35 µM and 1 µM, respectively.
In the same order, the values of `COC1C(O)C(C)OC(Oc2ccc(NC(=S)NC(CN)C(=O)NC3C=CCC4CN(c5c(F)cc6c(=O)c(C(=O)O)cn(C7CC7)c6c5Cl)CC43)cc2)C1O` [Example 12.15, N-{N^α -[O-(3-O-Methyl-β-L-fucosyl)-4-hydroxy-phenylamino-thiocarbonyl]-diamino-propionoyl)-quinolone-a, hydrochloride] are 1 µM, 0.3 µM and 0.1 µM.
With `COC1C(O)C(C)OC(Oc2ccc(NC(=S)NC(C)C(=O)NC(Cc3ccc(N(CCCl)CCCl)cc3)C(=O)O)cc2)C1O` (stereo not drawn) [Example 16.1], the concentration for half-maximal inhibition (IC50) came out at 100 µM in the assay on HT 29, 50 µM in the assay on SW 480 and 200 µM in the assay on B 16 F 10.
In the same order, the values of `COC1C(O)C(C)OC(Oc2ccc(NC(=S)NC(C)C(=O)NC(C)C(=O)NC(Cc3ccc(N(CCCl)CCCl)cc3)C(=O)O)cc2)C1O` [Example 16.2, N-{N'-[O-(3-O-Methyl-β-L-fucopyranosyl)-4-hydroxy-phenylamino-thiocarbonyl]-alanyl-alanyl}-melphalan] are 60 µM, 50 µM and 80 µM.
For `COc1cccc2c1C(=O)c1c(O)c3c(c(O)c1C2=O)CC(O)(C(=O)CO)CC3OC1CC(NC(=O)C(C)NC(=O)C(C)NC(=S)Nc2ccc(OC3OC(C)C(O)C(OC)C3O)cc2)C(O)C(C)O1` [Example 17.1, N-{N'-[O-(3--Methyl-β-L-fucopyranosyl)-4-hydroxy-phenylamino-thiocarbonyl]-alanyl-alanyl}-doxorubicin] the same measures were 5 µM, 10 µM and 5 µM.
In the same order, the values of `COc1cccc2c1C(=O)c1c(O)c3c(c(O)c1C2=O)CC(O)(C(=O)CO)CC3OC1CC(NC(=O)C(C)NC(=O)C(CCCCNC(=S)Nc2ccc(OC3OC(C)C(O)C(OC)C3O)cc2)NC(=S)Nc2ccc(OC3OC(C)C(O)C(OC)C3O)cc2)C(O)C(C)O1` [Example 17.2, N-{N^α,N^ε -Bis-[O-(3-O-methyl-β-L-fuccopyranosyl)-4-hydroxy-phenylamino-thiocarbonyl]-D-lysyl-alanyl}-doxorubicin] are 4 µM, 4 µM and 4 µM.
As for `CCC1(OC(=O)C(C)NC(=O)C(CCCCNC(=S)Nc2ccc(OC3OC(C)C(O)C(OC)C3O)cc2)NC(=S)Nc2ccc(OC3OC(C)C(O)C(OC)C3O)cc2)C(=O)OCc2c1cc1n(c2=O)Cc2cc3ccccc3nc2-1` [Example 18.1, 20-O-{N^α,N^ε -Bis-[O-(3-O-methyl-β-L-fucopyranosyl)-4-hydroxy-phenylamino-thiocarbonyl]-lysyl-alanyl}-camptothecin], the figures for the IC50 in the assay with HT 29, in the assay on SW 480 and in the assay with B 16 F 10 were 0.01 µM, 0.03 µM and 0.2 µM, respectively.
